Source: US9474790B2, “Stable, protracted GLP-1/glucagon receptor co-agonists for medical use” (Novo Nordisk A/S, priority 2013, dated 2016)
Numbered stars: 1 amine (or outer) side, 2 acyl side, 3 side chain; on linkers, the order of the positions; unused ones are H or OH. Square brackets hold non-standard residues; d marks the D form. Side chains are listed from the residue outwards. Peptide text beside a SMILES is read from it. * marks the point of attachment. C18 diacid = O=C(O)CCCCCCCCCCCCCCCCC(=O)*; γGlu = O=C(O)[C@H](CCC(=O)[*:2])N[*:1]; AEEA = NCCOCCOCC(=O)O; Aib = CC(C)(N)C(=O)O

What was measured:
human GLP-1 receptor [1] = biological target: T1, human GLP-1 receptor (Homo sapiens, UniProt P43220); assay: GLP-1 receptor potency, CRE luciferase reporter gene assay in BHK cells; assay type: cell-based; details: BHK cells expressing human GLP-1 receptor, read-out: EC50 GLP-1R
T1 construct: expressed in transfected cells; host or cells: BHK cells (parent BHKTS13), clone FCW467-12A/KZ10-1, with CRE luciferase
Procedure, shortened: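 Potency as cAMP-driven firefly luciferase signal after 3 h, 37° C exposure to 10-fold dilutions (final 1×10EE-13–1×10EE-6 M). Stable hGLP-1R/CRE-luc BHK clone, 5×10EE3 cells/well, medium containing 2% ovalbumin and 0.2% Pluronic F-68; EC50 (pM) from variable-slope non-linear regression.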

human GLP-1 receptor [2] = biological target: T1, human GLP-1 receptor; assay: GLP-1 receptor binding, 125I-GLP-1 displacement SPA on isolated membranes; details: displacement of 125I-GLP-1 from membranes; read-out: IC50 GLP-1R
Description: The purpose of this assay was to test the in vitro receptor binding activity of the glucagon derivatives of the invention. The receptor binding is a measure of affinity of a compound for the human GLP-1 receptor.
The receptor binding of each compound to the human GLP-1 receptor was measured in a displacement binding assay. In this type of assay a labelled ligand (in this case 125I-GLP-1) is bound to the receptor. Each derivative was added in a series of concentrations to isolated membranes containing the human GLP-1 receptor and displacement of the labelled ligand was monitored. The receptor binding was reported as the concentration at which half of the labelled ligand was displaced from the receptor, the IC50 value.
In order to test the binding of the derivatives to albumin, the assay may be performed in a very low concentration of serum albumin (max. 0.001% final assay concentration) as well as in the presence of a higher concentration of serum albumin (2.0% final assay concentration). An increase of the IC50 value, in the presence of serum albumin indicates an affinity to serum albumin and represents a method to predict a protracted pharmacokinetic profile of the test substance in animal models.
The following chemicals were used in the assay: DMEM w/o phenol red (Gibco 11880-028), Pen/strep (Invitrogen 15140-122), G418 (Invitrogen 10131-027), 1 M Hepes (Gibco 15630), EDTA (Invitrogen 15575-038), PBS (Invitrogen 14190-094), fetal calf serum (Invitrogen 16140-071), EGTA, MgCl2 (Merck 1.05832.1000), Tween 20 (Amresco 0850C335), SPA particles (wheat germ agglutinin (WGA) SPA beads, Perkin Elmer RPNQ0001), [125I]-GLP-1]-(7-36)NH2 (produced in-house), OptiPlate™-96 (Perkin Elmer).
Buffer 1 consisted of 20 mM Na-HEPES plus 10 mM EDTA and pH was adjusted to 7.4.
Buffer 2 consisted of 20 mM Na-HEPES plus 0.1 mM EDTA and pH was adjusted to 7.4.
Assay buffer consisted of 50 mM HEPES supplemented with 5 mM EGTA, 5 mM MgCl2, 0.005% Tween 20 and pH was adjusted to 7.4.
The cells used in this assay (clone FCW467-12A) were BHK cells with BHKTS13 as a parent cell line. The cells express the human GLP-1 receptor.
The cells were grown at 5% CO2 in DMEM, 10% fetal calf serum, 1% Pen/Strep (Penicillin/Streptomycin) and 1.0 mg/ml of the selection marker G418. To make a membrane preparation the cells were grown to approximately 80% confluence. The cells were washed twice in phosphate-buffered saline and harvested. The cells were pelleted using a brief centrifugation and the cell pellet was kept on ice. The cell pellet was homogenised with ULTRA-THURRAX dispersing instrument for 20-30 sec in a suitable amount of buffer 1 (e.g. 10 ml). The homogenate was centrifuged for 15 min. The pellet was re-suspended (homogenised) in 10 ml buffer 2 and centrifuged. This step was repeated once more. The resulting pellet was re-suspended in buffer 2 and the protein concentration was determined. The membranes were aliquoted and stored at minus 80° C.
1. For the receptor binding assay, 50 μl of the assay buffer was added to each well of an assay plate.
2. Test compounds were serially diluted to give the following concentrations: 8×10EE-7 M, 8×10EE-8 M, 8×10EE-9 M, 8×10EE-10 M, 8×10EE-11 M, 8×10EE-12 M and 8×10EE-13 M. Twenty-five μl were added to appropriate wells in the assay plate.
3. Cell membrane aliquots were thawed and diluted to their working concentration. Fifty μl were added to each well in the assay plate.
4. WGA SPA beads were suspended in assay buffer at 20 mg/ml. The suspension was diluted to 10 mg/ml in assay buffer just prior to addition to the assay plate. Fifty μl were added to each well in the assay plate.
5. The incubation was started by adding 25 μl of 480 pM solution of [125I]-GLP-1]-(7-36)NH2 to each well of the assay plate. A 25 μl aliquot was reserved for measuring total counts/well.
6. The assay plate was incubated for 2 h at 30° C.
7. The assay plate was centrifuged for 10 min.
8. The assay plate was read in a Perkin Elmer TopCount NXT instrument. […]

T1 sequence (P43220 24-463): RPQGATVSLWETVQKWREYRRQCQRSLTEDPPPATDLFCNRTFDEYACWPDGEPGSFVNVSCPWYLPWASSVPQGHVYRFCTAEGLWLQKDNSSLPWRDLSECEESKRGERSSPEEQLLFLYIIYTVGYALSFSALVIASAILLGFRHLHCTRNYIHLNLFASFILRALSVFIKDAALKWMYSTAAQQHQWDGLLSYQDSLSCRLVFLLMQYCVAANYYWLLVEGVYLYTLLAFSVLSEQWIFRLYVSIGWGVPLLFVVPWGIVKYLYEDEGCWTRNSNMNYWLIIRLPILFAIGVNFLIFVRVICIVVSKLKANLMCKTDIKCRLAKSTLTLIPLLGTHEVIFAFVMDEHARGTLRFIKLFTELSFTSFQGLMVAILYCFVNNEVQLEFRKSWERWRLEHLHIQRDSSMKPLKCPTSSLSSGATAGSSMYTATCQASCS

Row | EC50 (human GLP-1 receptor [1]) | IC50 (human GLP-1 receptor [2]) | SMILES
1 | 0.003 nM | 0.2 nM | CC(C)C[C@H](NC(=O)[C@H](Cc1ccc(O)cc1)NC(=O)[C@H](CCCCN)NC(=O)[C@H](CO)NC(=O)[C@H](CC(C)C)NC(=O)[C@H](CC(=O)O)NC(=O)[C@H](CO)NC(=O)[C@@H](NC(=O)[C@H](Cc1ccccc1)NC(=O)[C@@H](NC(=O)CNC(=O)[C@H](CCC(N)=O)NC(=O)C(C)(C)NC(=O)[C@@H](N)Cc1c[nH]cn1)[C@@H](C)O)[C@@H](C)O)C(=O)N[C@@H](CCC(=O)O)C(=O)N[C@@H](CO)C(=O)N[C@@H](CCCNC(=N)N)C(=O)N[C@@H](CCCNC(=N)N)C(=O)N[C@@H](C)C(=O)N[C@@H](CCCNC(=N)N)C(=O)N[C@@H](CC(=O)O)C(=O)N[C@@H](Cc1ccccc1)C(=O)N[C@H](C(=O)N[C@@H](CCC(N)=O)C(=O)N[C@@H](Cc1c[nH]c2ccccc12)C(=O)N[C@@H](CC(C)C)C(=O)N[C@@H](CC(C)C)C(=O)N[C@@H](CCCCNC(=O)COCCOCCNC(=O)COCCOCCNC(=O)CC[C@H](NC(=O)CC[C@H](NC(=O)CC[C@H](NC(=O)CCCCCCCCCCCCCCCCC(=O)O)C(=O)O)C(=O)O)C(=O)O)C(=O)N[C@H](C(N)=O)[C@@H](C)O)C(C)C [Example 57, N^ε28-[2-[2-[2-[(2-[2-[2-[[(4S)-4-carboxy-4-[[(4S)-4-carboxy-4-[[(4S)-4-carboxy-4-(17-carboxyheptadecanoylamino)butanoyl]amino]butanoyl]amino]butanoyl]amino]ethoxy]ethoxy]acetyl]amino]ethoxy]ethoxy]acetyl]-[Aib2,Leu10,Glu15,Arg20,Leu27,Lys28]-Glucagon amide] (H-H[Aib]QGTFTSDLSKYLESRRARDFVQWLLK([AEEA-AEEA-γGlu-γGlu-γGlu-C18 diacid])T-NH2; N-terminus assumed)
2 | 0.003 nM | 0.9 nM | CC(C)C[C@H](NC(=O)[C@H](Cc1ccc(O)cc1)NC(=O)[C@H](CCCNC(=N)N)NC(=O)[C@H](CO)NC(=O)[C@H](CC(C)C)NC(=O)[C@H](CC(=O)O)NC(=O)[C@H](CO)NC(=O)[C@@H](NC(=O)[C@H](Cc1ccccc1)NC(=O)[C@@H](NC(=O)CNC(=O)[C@H](CCC(N)=O)NC(=O)C(C)(C)NC(=O)[C@@H](N)Cc1c[nH]cn1)[C@@H](C)O)[C@@H](C)O)C(=O)N[C@@H](CC(=O)O)C(=O)N[C@@H](C)C(=O)N[C@@H](CCCNC(=N)N)C(=O)N[C@@H](CCCNC(=N)N)C(=O)N[C@@H](C)C(=O)N[C@@H](CCC(N)=O)C(=O)N[C@@H](CC(=O)O)C(=O)N[C@@H](Cc1ccccc1)C(=O)N[C@H](C(=O)N[C@@H](CCC(N)=O)C(=O)N[C@@H](Cc1c[nH]c2ccccc12)C(=O)N[C@@H](CC(C)C)C(=O)N[C@@H](CC(C)C)C(=O)N[C@@H](CCCCNC(=O)COCCOCCNC(=O)COCCOCCNC(=O)CC[C@H](NC(=O)CC[C@H](NC(=O)CC[C@H](NC(=O)CCCCCCCCCCCCCCCCC(=O)O)C(=O)O)C(=O)O)C(=O)O)C(=O)N[C@H](C(N)=O)[C@@H](C)O)C(C)C [Example 64, N^ε28-[2-[2-[2-[[2-[2-[2-[[(4S)-4-carboxy-4-[[(4S)-4-carboxy-4-[[(4S)-4-carboxy-4-(17-carboxyheptadecanoylamino)butanoyl]amino]butanoyl]amino]butanoyl]amino]ethoxy]ethoxy]acetyl]amino]ethoxy]ethoxy]acetyl]-[Aib2,Leu10,Arg12,Ala16,Leu27,Lys28]-Glucagon amide] (H-H[Aib]QGTFTSDLSRYLDARRAQDFVQWLLK([AEEA-AEEA-γGlu-γGlu-γGlu-C18 diacid])T-NH2; N-terminus assumed)
